Data from article PMC11413854, “Reversible Control of Native GluN2B-Containing NMDA Receptors with Visible Light” (ACS Chemical Neuroscience, 2024).
Entries after “also recorded” stand apart in the source; their conditions may differ. Read-outs that look alike come from different tables or passages of the source.

Columns and labels:
[1] = test system: cultured cortical neurons at DIV 14; assay: NMDA excitotoxicity test, neuronal survival by MTT; format: cell-based, mouse; conditions: for neuronal survival: 5 µM inhibitor + 100 µM NMDA + 10 µM glycine; for % of survival, Mean: compound 5µM with NMDA 100µM, MTT A(540 nm) normalized to control (100) and NMDA alone (0)
From the text: We first investigated whether OptoNAM-3 could be used in the context of a patho-physiological process related to GluN1/GluN2B receptors. Overactivation of NMDARs induced by tonic exposure to glutamate or NMDA is well-known to trigger neuronal death.[6] GluN1/GluN2B receptors are thought to be the major player of this neurotoxicity, and GluN1/GluN2B antagonists have proven to be potent neuroprotectants in vitro and in vivo.[5],[15] To test the neuroprotective activity of OptoNAM-3 and its photodependence of action, we performed a protocol of excitotoxicity based on exposure to NMDA (100 μM) of cultured cortical neurons at DIV 14,[15] in the presence of OptoNAM-3. […] OptoNAM-3 in the dark, at a concentration of 5 μM, induced, like ifenprodil, an ∼50% increase in cell survival (Figure S4). […] OptoNAM-3 is therefore able to promote cell survival in neuron cultures in a photodependent manner.
Mice were housed in the IBENS rodent central facility duly accredited by the French Ministry of Agriculture. All experiments were performed in compliance with French and European regulations on care and protection of laboratory animals (EU Directive 2010/63, French Law 2013–118, February 6, 2013), and were approved by local ethics committees and by the French Ministry of Research and Innovation (authorization numbers #05137.02, APAFIS #28867-2020121814485893). Dissociated cultures of cortical neurons were prepared from mouse embryos at E18 as described previously.[84] After removing meninges, cortices were placed in ice-cold HBSS solution. Cell dissociation was performed individually for cortices of each embryo. Cortices were incubated in 2.5% trypsin at 37 °C for 7 min, rinsed three times with 37 °C phosphate buffer saline, and finally suspended in plating medium (Neurobasal Medium, supplemented with 0.5 mM L-glutamine, 1% B27 supplement, and penicillin/streptomycin). The neurons were further dissociated by trituration, and cells were plated on poly-D-lysine coated coverslips in 24-well culture dishes at a density of 3 × 10^5 cells per well for the excitotoxicity test and that of 1 × 10^5 cells per well for patch clamp experiments. Cultures were incubated at 37 °C in a humidified atmosphere of 5% CO2. Cells were fed by changing 1/2 medium to fresh Neurobasal medium every 4 days. For the excitotoxicity experiments, after 5 days in vitro, growth of non-neuronal cells was halted by a 24 h exposure to FDX ([…] 5-fluoro-2′-deoxyuridine). The cultures were used for experiments after 6 to 14 days in vitro (DIV6–8 for patch clamp experiments and DIV14 for excitotoxicity tests).
Excitotoxicity tests were performed 14 days after the culturing step as described in ref[15]. Just before the experiments, the neuronal medium was changed and the neurons incubated in the external patch recording solution (see above). Two replicates of 24 well plates containing cultured cortical neurons were exposed to the same 4 conditions, in which the following compounds were added to the medium: (1) glycine (10 μM) alone (control); (2) glycine (10 μM) + NMDA (100 μM); (3) glycine (10 μM) + NMDA (100 μM) + 5 μM ifenprodil; and (4) glycine (10 μM) + NMDA (100 μM) + 5 μM trans-OptoNAM-3 (dark). One of the two plates was exposed to UV light (Jena analytic US, UVP Hand-held UV lamp UVGL-58, power ∼1 mW) for 2 min. The two plates were then put back in the 37 °C incubator for 10 min. Agonist exposure was terminated by washing out the exposure solution with conditioned Neurobasal medium, prior to returning the dishes to the incubator for 24 h before assessment of neuronal death.
Overall neuronal cell death was determined 24 h after NMDA exposure by the MTT test. Mitochondrial and cytosolic dehydrogenases of living cells reduce the yellow tetrazolium salt (MTT) to produce a purple formazan dye that can be detected spectrophotometrically.[85] […]

[2] = molecular target: T1, GluN1/GluN2B NMDA receptors (UniProt P35439+Q01097); assay: TEVC electrophysiology on Xenopus oocytes expressing wt GluN1/GluN2B NMDARs; format: cell-based, rat GluN1, mouse GluN2B; conditions: theoretical dose-response curve of a pure cis population calculated from 365 and 350 nm PSS
T1 construct: expressed in transfected cells; host or cells: Xenopus laevis oocytes (nuclear cDNA injection)
T1 sequence (Q01097 27-1482, other chains not shown): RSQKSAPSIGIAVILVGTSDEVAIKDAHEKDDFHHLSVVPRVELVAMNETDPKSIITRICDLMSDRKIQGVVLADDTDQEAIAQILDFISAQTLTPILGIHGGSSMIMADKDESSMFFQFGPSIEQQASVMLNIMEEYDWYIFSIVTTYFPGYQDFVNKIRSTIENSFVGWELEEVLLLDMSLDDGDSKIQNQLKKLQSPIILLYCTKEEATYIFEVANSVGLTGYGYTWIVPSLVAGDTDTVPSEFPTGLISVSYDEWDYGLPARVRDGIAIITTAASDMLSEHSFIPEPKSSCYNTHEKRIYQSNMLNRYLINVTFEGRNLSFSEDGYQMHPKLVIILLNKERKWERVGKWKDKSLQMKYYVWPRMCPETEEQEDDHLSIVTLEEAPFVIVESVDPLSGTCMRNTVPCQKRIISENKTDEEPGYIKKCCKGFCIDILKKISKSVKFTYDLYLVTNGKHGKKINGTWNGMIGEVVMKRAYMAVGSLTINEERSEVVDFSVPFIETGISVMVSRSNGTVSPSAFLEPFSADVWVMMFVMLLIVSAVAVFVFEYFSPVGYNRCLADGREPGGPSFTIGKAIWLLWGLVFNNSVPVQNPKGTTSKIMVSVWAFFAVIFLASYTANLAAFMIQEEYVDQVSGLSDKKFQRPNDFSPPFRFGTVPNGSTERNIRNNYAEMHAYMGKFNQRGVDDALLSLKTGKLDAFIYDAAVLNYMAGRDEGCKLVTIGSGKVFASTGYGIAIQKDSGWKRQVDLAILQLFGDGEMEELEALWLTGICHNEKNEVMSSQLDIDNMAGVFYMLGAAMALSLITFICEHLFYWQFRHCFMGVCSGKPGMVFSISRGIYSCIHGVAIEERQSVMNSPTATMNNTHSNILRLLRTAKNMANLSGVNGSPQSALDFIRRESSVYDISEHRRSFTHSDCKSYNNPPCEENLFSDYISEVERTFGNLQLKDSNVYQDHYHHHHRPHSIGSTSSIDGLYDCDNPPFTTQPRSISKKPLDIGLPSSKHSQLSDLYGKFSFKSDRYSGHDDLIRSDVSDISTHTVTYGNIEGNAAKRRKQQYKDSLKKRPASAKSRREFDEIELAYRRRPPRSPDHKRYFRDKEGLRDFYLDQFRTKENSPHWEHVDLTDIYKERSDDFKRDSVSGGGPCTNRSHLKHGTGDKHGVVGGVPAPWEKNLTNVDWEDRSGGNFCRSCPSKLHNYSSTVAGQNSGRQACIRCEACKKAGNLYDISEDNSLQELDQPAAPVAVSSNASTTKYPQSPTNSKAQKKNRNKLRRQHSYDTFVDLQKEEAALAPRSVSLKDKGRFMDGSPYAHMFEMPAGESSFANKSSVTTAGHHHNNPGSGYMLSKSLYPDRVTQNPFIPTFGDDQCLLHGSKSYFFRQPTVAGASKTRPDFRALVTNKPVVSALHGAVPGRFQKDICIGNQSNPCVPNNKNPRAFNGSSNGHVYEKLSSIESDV
From the text: The activity of OptoNAM-3 was functionally monitored by electrophysiology on Xenopus oocytes (see Methods). To assess the light-dependent effect, we tested the activities of the dark PSS (mostly trans) and the UV PSS (mostly cis, see above) separately. For each concentration, we prepared a solution divided into two samples: one in which the compound was kept in the dark for the duration of the experiment (dark PSS state); and the other that was preilluminated with either 350 or 365 nm light (350 or 365 nm PSS) and then kept away from the light for the duration of the experiment in order to avoid photoisomerization of the compounds by ambient light (see Methods). […] We generated dose–response curves of OptoNAM-3 dark and UV PSS on wild-type (wt) GluN1/GluN2B NMDA receptors (Figure 3A) in the presence of saturating concentrations of agonists (100 μM glutamate and glycine).
We used cDNA coding for rat GluN1–1a (named GluN1 herein) (GenBank: U08261.1), rat GluN2A (GenBank: D13211.1), mouse GluN2B (GenBank: D10651.2), rat GluA1 flop (GenBank: M36418.2), and rat Myc-GluA2(Q)-flip (GenBank: AF164344.1) cloned into pcDNA3-based expression plasmids. GluK2 (GenBank: Z11548.1) corresponds to the fully RNA-edited version.[80] The GluN2B-ΔNTD construct is from ref[45] and GluN2B–N615K is from ref[81]. Single mutants GluN2B-Q110G and GluN1-L135H were from ref[19]. The GluA2 cDNA contains a Myc tag ([…]) fused between the signal peptide and the N-terminus sequences, and the GluA2 subunit is […] for its Q/R/N site (GluA2(Q)) to allow permeation of homomeric GluA2 receptors.[2] cDNAs coding for rat GluN2C (GenBank: M91563.1) and GluN2D subunits (GenBank: L31611.1) were in prK5 plasmids.
Oocytes from Xenopus laevis were used for heterologous expression of recombinant NMDA receptors studied using a two-electrode voltage clamp (TEVC). Female Xenopus laevis were housed and ovary bags harvested according to the European Union guidelines (husbandry authorizations #C75–05–31 and #D75–05–31; project authorizations #05137.02; and Apafis #28867–2020121814485893). Fragments of ovary bags were also purchased from the “Centre de Ressources Biologiques Xenopes” (now TEFOR, Paris Saclay, France) and from the European Xenopus Resource Center (EXRC, Portsmouth, UK). Xenopus laevis oocytes were harvested and prepared as previously described in ref[82].
Expression of recombinant NMDA receptors was obtained by oocyte nuclear coinjection of 37 nL of a mixture of cDNAs (at 30 ng/μL) coding for GluN1–1a and various GluN2 subunits (ratio 1:1). The protocol in ref[43] was followed for the expression of GluN1/GluN2A/GluN2B triheteromers. The oocytes were transferred in 96-well plates filled with Barth solution (in mM: 88 NaCl, 1 KCl, 0.33 Ca(NO3)2, 0.41 CaCl2, 0.82 MgSO4, 2.4 NaHCO3, and 7.5 HEPES, pH adjusted to 7.3 with NaOH), supplemented with gentamicin ([…]) and 50 μM APV, a selective NMDA receptor antagonist. Plates were then stored at 18 °C for 24 h for GluN1/GluN2A expression and for 48––72 h for the expression of GluN1/Glu2B, GluN1/GluN2A/GluN2B, and mutants.
TEVC recordings were performed 1–3 days following injection. TEVC recordings were performed using an Oocyte Clamp amplifier OC-725 (Warner Instruments) and computer-controlled via a 1440A Digidata (Molecular Devices). Currents were sampled at 100 Hz and low-pass-filtered at 20 Hz using an 8-pole Bessel filter (900 Series, Frequency Devices Inc.).

GluN1/GluN2B NMDARs = conditions: cited from earlier work; for Ki or IC50: Sup. Fig. 2G, Ki or IC50 not specified

In the case of `CC(C(O)c1ccc(O)cc1)N1CCC(Cc2ccccc2)CC1` (stereo not drawn) [ifenprodil], the neuronal survival ([1]; 2 min UV (365 nm), normalized to control and NMDA) is reported as “not affected; also recorded: No photodependent effect”, the neuronal survival ([1]; dark, normalized to control (100%) and NMDA (0%)) is reported as 60% and the “% of survival, Mean” value ([1]; Dark) is reported as 59.345%. For the same compound, the “% of survival, Mean” value ([1]; UV) was 59.393%.

With `c1ccc(/N=N\c2ccc(CCNc3ccncc3)cc2)cc1` [cis-OptoNAM-3] the “activity of the cis isomer on GluN1/GluN2B NMDARs” value [2] was “inactive”.

In the case of `Cc1cc(N)nc(/C=C/c2ccccc2)c1` [parent compound 2], the Ki or IC50 (GluN1/GluN2B NMDARs; ref: ref. 40) is given as 10 nM and the IC50 (GluN1/GluN2B NMDARs; ref 2,6 (SI), read-out: Parent compound IC50) is given as 10 nM.

In the case of `Nc1ccnc(N2CCc3ccccc3C2)c1` [parent compound 1], the Ki (GluN1/GluN2B NMDARs; ref 3 (SI), read-out: Parent compound Ki) is listed as 3 nM.

For `Nc1ccnc(N2CCc3ccccc3C2)c1` [9n = Compound 1], the Ki or IC50 (GluN1/GluN2B NMDARs; ref: ref. 39) is listed as 3 nM.
